Assay results published in ChEMBL document CHEMBL1125995, “Synthesis of a difluoromethylenephosphonate analogue of AZT 5'-triphosphate and its inhibition of HIV-1 reverse transcriptase” (Bioorg Med Chem Lett, 1991).

What was measured:
[1] = biological target: T1, Human immunodeficiency virus type 1 reverse transcriptase (Human immunodeficiency virus 1, UniProt Q72547); assay: Compound concentration that causes 50 % inhibition of HIV-1 peptide-derived reverse transcriptase (RT)
[2] = biological target: T1, Human immunodeficiency virus type 1 reverse transcriptase; assay: Inhibitory constant was determined in an HIV-1 reverse transcriptase assay in which the [3H]dTTP concentration was varied (i.e. 40, 20, 10, 6, and 4 uM
[3] = biological target: T1, Human immunodeficiency virus type 1 reverse transcriptase; assay: Compound concentration that causes 50 % inhibition of HIV-1 peptide-derived reverse transcriptase (RT) obtained from HIV-1-infected H9 cell cultures

IC50 [1]	Ki [2]	IC50 [3]	Structure (SMILES)
6950 nM			Cc1cn(C2CC(N=[N+]=[N-])C(COP(=O)(O)OP(=O)(O)CP(=O)(O)O)O2)c(=O)[nH]c1=O (centres undefined)
620 nM	2230 nM		Cc1cn(C2CC(N=[N+]=[N-])C(COP(=O)(O)OP(=O)(O)C(F)(F)P(=O)(O)O)O2)c(=O)[nH]c1=O (centres undefined)
		22 nM	Cc1cn([C@H]2C[C@H](N=[N+]=[N-])[C@@H](CO[P@](=O)(O)O[P@](=O)(O)OP(=O)(O)O)O2)c(=O)[nH]c1=O [ZIDOVUDINE TRIPHOSPHATE]
